Data as given in patent US20060148020A1, “Inhibitors of gst a3-3 and gst a1-1 for the treatment of cancer” (priority 2002, published 2006).
pIC50: −log10 of the molar value. Read-outs that look alike come from different tables or passages of the source.

Assays:
[1] = target: T1, GST A3-3 (Homo sapiens, UniProt Q16772); assay: biochemical
T1 sequence (Q16772 1-222): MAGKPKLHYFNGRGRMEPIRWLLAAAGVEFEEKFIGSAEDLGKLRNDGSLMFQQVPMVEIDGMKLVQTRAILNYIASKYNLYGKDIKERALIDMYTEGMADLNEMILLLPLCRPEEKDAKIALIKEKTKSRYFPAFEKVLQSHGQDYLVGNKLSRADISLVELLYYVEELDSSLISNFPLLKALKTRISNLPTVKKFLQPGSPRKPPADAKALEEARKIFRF

[2] = target: T2, GST A1-1 (Homo sapiens, UniProt P08263); assay: biochemical
T2 sequence (P08263 1-222): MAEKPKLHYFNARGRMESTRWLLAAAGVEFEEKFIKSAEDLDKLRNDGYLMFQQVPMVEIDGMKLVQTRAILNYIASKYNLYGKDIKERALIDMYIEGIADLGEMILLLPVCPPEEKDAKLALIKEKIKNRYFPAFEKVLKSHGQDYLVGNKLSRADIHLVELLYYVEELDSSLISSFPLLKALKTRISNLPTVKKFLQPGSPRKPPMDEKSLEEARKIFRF

[3] = target: T1, GST A3-3; conditions: read-out: IC50 Values GST A3-3
[4] = target: T2, GST A1-1; conditions: read-out: IC50 Values GST A1-1
[5] = target: T3, GST A2-2 (Homo sapiens, UniProt P09210); assay: biochemical
T3 sequence (P09210 1-222): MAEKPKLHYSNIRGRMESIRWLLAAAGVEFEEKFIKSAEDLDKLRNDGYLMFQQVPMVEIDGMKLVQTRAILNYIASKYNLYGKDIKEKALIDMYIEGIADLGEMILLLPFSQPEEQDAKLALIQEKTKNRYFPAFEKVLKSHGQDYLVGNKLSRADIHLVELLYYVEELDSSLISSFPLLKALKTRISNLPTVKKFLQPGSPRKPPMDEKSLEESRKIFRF

[6] = target: T3, GST A2-2; conditions: read-out: IC50 Values GST A2-2

Row | SMILES | pIC50 [1] | pIC50 [2] | pIC50 [3] | pIC50 [4] | pIC50 [5] | pIC50 [6]
1 | C[CH2][Pb]([Cl])([CH2]C)[CH2]C [Et3PbCl] | 5.64 | 5.70 | – | – | – | –
2 | CC(=O)[O][Sn]([c]1ccccc1)([c]1ccccc1)[c]1ccccc1 [Ph3SnAc] | – | – | 6.80 | 6.80 | – | –
3 | C[CH2][Ge]([Cl])([CH2]C)[CH2]C [Et3GeCl] | 4.17 | 4.25 | – | – | 6.10 | –
4 | CCC[CH2][Sn]([CH2]CCC)([CH2]CCC)[O]C(C)=O [Bu3SnAc] | – | – | 7.74 | 7.74 | – | 6.39
5 | [Br][Pb]([c]1ccccc1)([c]1ccccc1)[c]1ccccc1 [Ph3PbBr] | 6.80 | 8.07 | – | – | – | –
6 | [Cl][Pb]([c]1ccccc1)([c]1ccccc1)[c]1ccccc1 [Ph3PbCl] | 7.89 | 8.34 | – | – | 7.08 | –
